{
  "source": "patent US7897591B2",
  "about": "“Method of treating fatty liver disease” (priority 2005, dated 2011)",
  "tested_on": "C57BL/6 mice",
  "assay": "Serum liver function tests (AP, ALT, total and direct bilirubin) in HCD mouse model",
  "type": "in vivo",
  "experimental": "Experiments were performed on 5-6 week-old C57BL/6 mice (Jackson Laboratories, Bar Harbor, Me.). The animals, in groups of five, were housed in a barrier room and were acclimated to their environment for at least 72 hours prior to the initiation of each experiment. Animal protocols complied with the NIH Animal Research Advisory Committee guidelines and were approved by the Children's Hospital Boston Animal Care and Use Committee. Control animals (n=5) received normal chow and water ad libitum. All animals in the experimental groups were fed a fat-free, high carbohydrate liquid diet (HCD) ad libitum placed in one bottle per cage as previously described (3, 62). No additional sources of nutrition or hydration were provided. The HCD liquid solution contained 20% dextrose, a commercial mixture of 2% essential and nonessential amino acids (TrophAmine, B. Braun Medical, Irvine, Calif.), 2 ml trace elements (Trace Elements Injection 4, USP—Pediatric, American Regent Shirley, N.Y.), and 5 ml multivitamins (M.V.I. Pediatric™, Mayne Pharma, Paramus, N.J.). Each liter of HCD contained 30 meq sodium, 20 meq potassium chloride, 15 meq calcium, 10 meq magnesium, and 10 mM phosphate. The bottles were replaced daily with fresh HCD solution. HCD animals (n=5) received HCD only and no additional treatment for 19 days. The HCD+MAR animals (n=15) additionally received 100 mg/kg of Marimastat™ in 0.45% methylcellulose (Sigma-Aldrich Corporation, St. Louis, Mo.) vehicle twice daily via orogastric gavage. The animals were individually weighed every third day and at sacrifice. Mice were anesthetized with 300 μl of 2.5% Avertin (Tribromoethanol, Sigma-Aldrich Corporation, St. Louis, Mo.) by intraperitoneal injection. Approximately 400 μl of blood was collected from each mouse via retro-orbital puncture. The specimens were then placed into serum separator tubes (Becton Dickinson, Franklin Lakes, N.J.), and centrifuged at 4° C. at 8000 rpm for 10 minutes to separate serum. Serum was frozen at −80° C. and delivered to the Clinical Laboratory at Children's Hospital Boston for measurement of aspartate aminotransferase (AST), alanine aminotransferase (ALT), alkaline phosphatase (AP), and total (TB) and direct bilirubin (DB) levels. Furthermore, a fatty acid profile was performed on these samples and TNF-α soluble receptor II levels were determined as described below.",
  "data": [
    {"smiles": "CNC(=O)[C@@H](NC(=O)[C@H](CC(C)C)[C@H](O)C(=O)NO)C(C)(C)C", "note": "[Marimastat]", "values": [
      {"measurement": "total bilirubin level", "setting": "HCD+MAR group compared to HCD-only group", "result": "significantly lower"},
      {"measurement": "serum alanine amino transferase (ALT) level", "setting": "HCD+MAR group vs HCD-only, P<0.001", "result": "lower"},
      {"measurement": "serum alkaline phosphatase (AP) level", "setting": "HCD+MAR group, P<0.001", "result": "significantly lower"},
      {"measurement": "direct bilirubin (DB) level", "setting": "all 15 mice in HCD+MAR group, P<0.001", "result": 0}
    ]}
  ]
}
